Earlier results, collected in article PMC7693203 (Epilepsia, 2020).
Read-outs that look alike come from different tables or passages of the source.

Assays:
[1] = cited from earlier work; for Abdominal pain / Chromaturia / Diarrhea / Fatigue / Flatulence / Headache / Hepatic enzyme increased / Nausea / Somnolence: healthy volunteers
[2] = target: CYP3A4 (Homo sapiens, UniProt P08684); settings: result in words, cited from earlier work
[3] = trial 1543, healthy volunteers, N = 77
[4] = trial 1543 groups 1 + 2 (DDI CLB), n = 27
[5] = trial 1543 groups 3 + 4 (DDI STP), n = 24
[6] = trial 1543 groups 5 + 6 (DDI VPA), n = 26

Sequence of CYP3A4 (P08684 whole entry): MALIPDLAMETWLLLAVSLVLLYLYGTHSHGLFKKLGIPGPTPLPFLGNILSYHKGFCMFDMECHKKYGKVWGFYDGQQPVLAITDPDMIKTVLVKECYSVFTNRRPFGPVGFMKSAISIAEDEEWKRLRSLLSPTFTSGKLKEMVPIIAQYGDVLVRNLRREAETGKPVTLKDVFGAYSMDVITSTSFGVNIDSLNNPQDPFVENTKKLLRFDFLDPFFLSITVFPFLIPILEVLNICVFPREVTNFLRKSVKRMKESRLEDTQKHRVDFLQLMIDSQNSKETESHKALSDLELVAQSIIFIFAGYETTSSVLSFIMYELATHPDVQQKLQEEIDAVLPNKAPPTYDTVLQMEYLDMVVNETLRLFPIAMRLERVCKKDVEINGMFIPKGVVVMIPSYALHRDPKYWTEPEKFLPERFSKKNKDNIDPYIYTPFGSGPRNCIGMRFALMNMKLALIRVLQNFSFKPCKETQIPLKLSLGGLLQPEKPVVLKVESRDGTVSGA

C=C(C)[C@@H]1CCC(C)=C[C@H]1c1c(O)cc(CCCCC)cc1O [CBD, cannabidiol]
AEs leading to withdrawal [1, 3]: 6 (8) n (%) | Death [1, 3]: 0 (0) n (%) | Patient with at least 1 AE [1, 3]: 72 (94) n (%) | Serious AEs [1, 3]: 0 (0) n (%) | Severe AEs [1, 3]: 2 (3) n (%) | subjects who experienced an AE of rash ([1]; trial 1543, of 77, early in the trial): 12% | healthy volunteers who experienced an AE ([1]; trial 1543, of 77): 94% | elevations in transaminase levels as AEs or laboratory evaluations ([1]; trial 1543, result in words): no reports | Abdominal pain [1, 4]: 7 (26) n (%) | Chromaturia [1, 4]: 0 (0) n (%) | Diarrhea [1, 4]: 7 (26) n (%) | Fatigue [1, 4]: 14 (52) n (%) | Flatulence [1, 4]: 0 (0) n (%) | Headache [1, 4]: 13 (48) n (%) | Hepatic enzyme increased [1, 4]: 0 (0) n (%) | Nausea [1, 4]: 8 (30) n (%) | Somnolence [1, 4]: 5 (19) n (%) | Abdominal pain [1, 5]: 7 (29) n (%) | Chromaturia [1, 5]: 0 (0) n (%) | Diarrhea [1, 5]: 13 (54) n (%) | Fatigue [1, 5]: 8 (33) n (%) | Flatulence [1, 5]: 6 (25) n (%) | Headache [1, 5]: 9 (38) n (%) | Hepatic enzyme increased [1, 5]: 0 (0) n (%) | Nausea [1, 5]: 6 (25) n (%) | Somnolence [1, 5]: 8 (33) n (%) | Abdominal pain [1, 6]: 7 (27) n (%) | Chromaturia [1, 6]: 0 (0) n (%) | Diarrhea [1, 6]: 15 (58) n (%) | Fatigue [1, 6]: 14 (54) n (%) | Flatulence [1, 6]: 1 (4) n (%) | Headache [1, 6]: 8 (31) n (%) | Hepatic enzyme increased [1, 6]: 0 (0) n (%) | Nausea [1, 6]: 8 (31) n (%) | Somnolence [1, 6]: 7 (27) n (%) | inhibition of CYP3A4 ([2]; human liver microsomes): potently inhibits | inhibition of CYP3A4 ([2]; in vitro data): potent inhibitor
